Data as given in PubChem BioAssay (NCI).
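How tested: cells in 96-well plates exposed to compound for 48 hours at five concentrations. The concentration for 50% growth inhibition is given as GI50. TGI marks complete inhibition of growth.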

What was measured:
Test in all cases: inhibition of tumour cell growth, NCI panel, 48 h
[1] = system: 786-0 renal
[2] = system: A498 renal
[3] = system: A549 NSCLC
[4] = system: ACHN renal
[5] = system: BT-549 breast
[6] = system: CAKI-1 renal
[7] = system: CCRF-CEM leukemia
[8] = system: COLO 205 colon
[9] = system: DU-145 prostate
[10] = system: EKVX NSCLC
[11] = system: HCC-2998 colon
[12] = system: HCT-116 colon
[13] = system: HCT-15 colon
[14] = system: HL-60(TB) leukemia
[15] = system: HOP-62 NSCLC
[16] = system: HOP-92 NSCLC
[17] = system: HS 578T breast
[18] = system: HT29 colon
[19] = system: IGROV1 ovarian
[20] = system: K-562 leukemia
[21] = system: KM12 colon
[22] = system: LOX IMVI melanoma
[23] = system: M14 melanoma
[24] = system: MALME-3M melanoma
[25] = system: MCF7 breast
[26] = system: MDA-MB-231 breast
[27] = system: MDA-MB-435
[28] = system: MOLT-4 leukemia
[29] = system: NCI-H226 lung
[30] = system: NCI-H23 lung
[31] = system: NCI-H460 lung
[32] = system: NCI-H522 lung
[33] = system: NCI/ADR-RES ovarian
[34] = system: OVCAR-3 ovarian
[35] = system: OVCAR-5 ovarian
[36] = system: OVCAR-8 ovarian
[37] = system: PC-3 prostate
[38] = system: RPMI-8226 leukemia
[39] = system: RXF 393 renal
[40] = system: SF-268 CNS
[41] = system: SF-295 CNS
[42] = system: SF-539 CNS
[43] = system: SK-MEL-2 melanoma
[44] = system: SK-MEL-28 melanoma
[45] = system: SK-MEL-5 melanoma
[46] = system: SK-OV-3 ovarian
[47] = system: SN12C renal
[48] = system: SNB-19 CNS
[49] = system: SNB-75 CNS
[50] = system: SR leukemia
[51] = system: SW-620 colon
[52] = system: T-47D breast
[53] = system: TK-10 renal
[54] = system: U251 CNS
[55] = system: UACC-257 melanoma
[56] = system: UACC-62 melanoma
[57] = system: UO-31 renal

`CN(C)CC(C(=O)c1ccccc1)c1ccccc1` (centres undefined) gave a GI50 [1] of 3.58 µM, a TGI [1] of 10.4 µM and a GI50 [2] of 4.44 µM. It also gave a TGI [2] of 18.4 µM, a GI50 [3] of 6.76 µM and a TGI [3] of 20.6 µM. For the same compound, the GI50 [4] was 1.36 µM, the TGI [4] was 2.65 µM and the GI50 [5] was 1.87 µM. The TGI [5] was 4.39 µM, the GI50 [6] was 0.966 µM and the TGI [6] was 2.67 µM. The GI50 [7] was 0.755 µM, the TGI [7] was 10.9 µM and the GI50 [8] was 1.77 µM. For the same compound, the TGI [8] was 3.33 µM, the GI50 [9] was 1.34 µM and the TGI [9] was 3.15 µM. It also gave a GI50 [10] of 10.2 µM, a TGI [10] of 27.1 µM and a GI50 [11] of 4.86 µM. It also gave a TGI [11] of 16.4 µM, a GI50 [12] of 1.03 µM and a TGI [12] of 2.2 µM. For the same compound, the GI50 [13] was 1.11 µM, the TGI [13] was 2.54 µM and the GI50 [14] was 3.17 µM. For the same compound, the TGI [14] was 8.22 µM, the GI50 [15] was 11.3 µM and the TGI [15] was 23.5 µM. For the same compound, the GI50 [16] was 2.28 µM, the TGI [16] was 9.54 µM and the GI50 [17] was 2.19 µM. The TGI [17] was 12.8 µM, the GI50 [18] was 0.662 µM and the TGI [18] was 2.15 µM. For the same compound, the GI50 [19] was 2.2 µM, the TGI [19] was 5.47 µM and the GI50 [20] was 0.483 µM. For the same compound, the TGI [20] was 10.1 µM, the GI50 [21] was 1.74 µM and the TGI [21] was 3.83 µM. It also gave a GI50 [22] of 0.765 µM, a TGI [22] of 2.33 µM and a GI50 [23] of 1.46 µM. The TGI [23] was 2.92 µM, the GI50 [24] was 1.69 µM and the TGI [24] was 3.62 µM. It also gave a GI50 [25] of 1.15 µM, a TGI [25] of 3.35 µM and a GI50 [26] of 2.5 µM. The TGI [26] was 10.1 µM, the GI50 [27] was 1.9 µM and the TGI [27] was 7.38 µM. The GI50 [28] was 4.2 µM, the TGI [28] was 31.3 µM and the GI50 [29] was 2.42 µM. The TGI [29] was 7.79 µM, the GI50 [30] was 2.95 µM and the TGI [30] was 12.7 µM. The GI50 [31] was 3.93 µM, the TGI [31] was 16 µM and the GI50 [32] was 1.3 µM. It also gave a TGI [32] of 2.79 µM, a GI50 [33] of 2.59 µM and a TGI [33] of 8.37 µM. The GI50 [34] was 1.24 µM, the TGI [34] was 2.5 µM and the GI50 [35] was 5.93 µM. The TGI [35] was 16.8 µM, the GI50 [36] was 1.99 µM and the TGI [36] was 6.56 µM. For the same compound, the GI50 [37] was 4.12 µM, the TGI [37] was 16.9 µM and the GI50 [38] was 2.08 µM. It also gave a TGI [38] of 7.49 µM, a GI50 [39] of 1.69 µM and a TGI [39] of 4.46 µM. For the same compound, the GI50 [40] was 3.26 µM, the TGI [40] was 10.8 µM and the GI50 [41] was 4.52 µM. The TGI [41] was 18.2 µM, the GI50 [42] was 2.25 µM and the TGI [42] was 5.04 µM. It also gave a GI50 [43] of 3.35 µM, a TGI [43] of 7.87 µM and a GI50 [44] of 4.13 µM. For the same compound, the TGI [44] was 13.6 µM, the GI50 [45] was 1.57 µM and the TGI [45] was 3.45 µM. The GI50 [46] was 2.62 µM, the TGI [46] was 7.77 µM and the GI50 [47] was 1.57 µM. For the same compound, the TGI [47] was 3.35 µM, the GI50 [48] was 6.1 µM and the TGI [48] was 19.4 µM. For the same compound, the GI50 [49] was 3.54 µM, the TGI [49] was 14.4 µM and the GI50 [50] was 2.28 µM. It also gave a TGI [50] of 7.51 µM, a GI50 [51] of 0.396 µM and a TGI [51] of 1.57 µM. The GI50 [52] was 2.03 µM, the TGI [52] was 5.73 µM and the GI50 [53] was 1.3 µM. For the same compound, the TGI [53] was 2.67 µM, the GI50 [54] was 1.56 µM and the TGI [54] was 3.13 µM. For the same compound, the GI50 [55] was 1.99 µM, the TGI [55] was 5.81 µM and the GI50 [56] was 2.05 µM. The TGI [56] was 7 µM, the GI50 [57] was 1.49 µM and the TGI [57] was 3.02 µM.
